Results reported in patent publication US20230330221A1, “ADJUVANT BASED ON PEPTIDE NUCLEIC ACID” (priority 2019, published 2023).
“Also recorded” adds a separate entry of the source. Read-outs that look alike come from different tables or passages of the source.

Key:
[1] = system: A/Singapore/GP1908/2015 strain; assay type: in vivo, BALB/c mouse; settings: subcutaneous, 1 μg adjuvant per shot, after the second administration; rank among MIP01, adjuvant-free and CPP01 groups (FIG. 2)
[2] = system: B/Maryland/15/2016 strain; assay type: in vivo, BALB/c mouse; settings: transnasal, 10 μg adjuvant per shot; rank among MIP01, adjuvant-free and CPP01 groups (FIG. 4B)
[3] = system: A/Singapore/GP1908/2015 strain; assay type: in vivo, BALB/c mouse; settings: transnasal, 10 μg adjuvant per shot; rank among MIP01, adjuvant-free and CPP01 groups (FIG. 4A)
[4] = system: B/Maryland/15/2016 strain; assay type: in vivo, BALB/c mouse; settings: subcutaneous, both first and second administrations
[5] = system: A/Singapore/GP1908/2015 strain; assay type: in vivo, BALB/c mouse; settings: subcutaneous, both first and second administrations
[6] = system: A/Singapore/GP1908/2015 strain; assay type: in vivo; settings: transnasal, 10 μg adjuvant + 1 μg HA split antigen per shot, BALB/c mouse, both first and second administrations; versus adjuvant-free group (FIG. 3A)
[7] = system: B/Maryland/15/2016 strain; assay type: in vivo; settings: transnasal, 10 μg adjuvant + 1 μg HA split antigen per shot, BALB/c mouse, both first and second administrations; versus adjuvant-free group; Mann-Whitney U test, p<0.05 (FIG. 3B)

Substance | neutralizing antibody titer against A/Singapore/GP1908/2015 strain [1] | antigen-specific IgA titer in the nasal cavity wash against B/Maryland/15/2016 strain [2] | antigen-specific IgA titer in the nasal cavity wash against A/Singapore/GP1908/2015 strain [3] | blood antigen-specific IgG titer against B/Maryland/15/2016 strain ([4]; 1 μg adjuvant + 1 μg HA split antigen per shot, BALB/c mouse, versus adjuvant-free group (FIG. 1B)) | blood antigen-specific IgG titer against B/Maryland/15/2016 strain ([4]; 1 μg adjuvant per shot, compared to the CPP01 administration group (FIG. 1B)) | blood antigen-specific IgG titer against A/Singapore/GP1908/2015 strain ([5]; 1 μg adjuvant + 1 μg HA split antigen per shot, BALB/c mouse, versus adjuvant-free group (FIG. 1A)) | blood antigen-specific IgG titer against A/Singapore/GP1908/2015 strain ([5]; 1 μg adjuvant per shot, compared to the CPP01 administration group (FIG. 1A)) | blood antigen-specific IgG titer against A/Singapore/GP1908/2015 strain [6] | blood antigen-specific IgG titer against B/Maryland/15/2016 strain [7]
GRKKRRQRRRPPQ (Human immunodeficiency virus) [CPP01, reference compound] | lowest value | lowest | lowest |  |  |  |  |  | 
GRKKRRQRRRPPQ-G3PNA (C-terminal G3PNA conjugate; Human immunodeficiency virus) [MIP01] | highest value | highest | highest | higher as compared to that in the adjuvant-free group | showed a higher blood antigen-specific IgG titer | higher as compared to that in the adjuvant-free group | showed a higher blood antigen-specific IgG titer | higher as compared to that in the adjuvant-free group | higher as compared to that in the adjuvant-free group; also recorded: significant increase in antibody titer with respect to the adjuvant-free group
